Laboratory results taken from US20040142910A1, “Sulfonated styrene copolymers for medical uses” (Aegis Biosciences LLC, priority 2002, published 2004).

Key:
[1] = tested on: Human umbilical vein ECs (HUVECs); assay: endothelial cell proliferation in the absence of fibrin; format: cell-based; details: SNAP 0.1 and 0.4 mmol/L
Procedure: (§1) Angiogenesis is a complex process that involves the activation of quiescent endothelial cells (ECs) to a proliferative and migratory phenotype and, subsequently, their redifferentiation to form vascular tubes. We hypothesized that NO contributes to angiogenesis by terminating the proliferative action of angiogenic growth factors and initiating a genetic program of EC differentiation. Human umbilical vein ECs (HUVECs) and calf pulmonary artery ECs (CPAECs) were grown directly on plastic dishes or on three-dimensional fibrin matrices. […] The addition of basic fibroblast growth factor (bFGF, […]) increased the expression of endothelial NO synthase mRNA and the production of NO in both cell types when cultured on three-dimensional fibrin gels and produced profound morphological changes characterized by the appearance of extensive capillary-like vascular structures and the loss of EC monolayers. These changes were quantified by measuring total tube length per low-power field (X 100), and a differentiation index was derived using the ratio of tube length over area covered by residual EC monolayer. In the absence of additional angiogenic factors, the differentiation index was low for both HUVECs and CPAECs (control, 1.16plus or minus0.19 and 2.07plus or minus0.87, respectively).

[2] = tested on: calf pulmonary artery ECs (CPAECs); assay: as above; format: cell-based; details: SNAP 0.1 and 0.4 mmol/L, L-NAME, L-NMMA 1 mmol/L
Procedure: as §1

endothelial cells (ECs) = assay: EC tube formation in response to bFGF; format: cell-based
Procedure: as §1

[3] = treatment of asthma; cited from earlier work
[4] = tested on: Human umbilical vein ECs (HUVECs); assay: EC differentiation on three-dimensional fibrin gels; format: cell-based; details: bFGF 30 ng/nL
Procedure: as §1

[5] = tested on: calf pulmonary artery ECs (CPAECs); assay: as above; format: cell-based; details: bFGF 30 ng/nL
Procedure: as §1

With CC(=O)N[C@H](C(=O)O)C(C)(C)SN=O (racemic) [SNAP, S-nitroso-N-acetylpenicillamine] the proliferation [1] was “dose-dependent inhibition” and the proliferation [2] was “dose-dependent inhibition”.
With COC(=O)[C@@H](N)CCCNC(=N)N[N+](=O)[O-] [L-NAME, N(G)-nitro-L-arginine methyl ester] the proliferation [2] was “significantly increased” and the “EC tube formation in response to bFGF” value (endothelial cells (ECs)) was “inhibited EC tube formation”.
For CNC(=N)NCCC[C@H](N)C(=O)O [L-NMMA, N(G)-monomethyl-L- arginine], the proliferation [2] was “significantly increased”.
For Cn1c(=O)c2[nH]cnc2n(C)c1=O [theophylline], the “minimum effective blood concentrations” value [3] is listed as 6 to 10 µg/mL.
In the case of bFGF: basic fibroblast growth factor, the “expression of endothelial NO synthase mRNA and production of NO” value [4] is reported as “increased” and the “expression of endothelial NO synthase mRNA and production of NO” value [5] is reported as “increased”.
